The source of these data is patent publication US8809386B2, “Use of dynamin ring stabilizers” (Children's Medical Research Institute, priority 2009, dated 2014).

The subject of experiment [1] is LPS-induced proteinuria, BALB/c mice. Briefly: LPS-induced proteinuria in mice. The format is in vivo, mouse. The following applies: IP, 300 μg per 100 g body weight. As for the experimental part:
FIG. 21 is a graph showing that the ring stabilizer Bis-T-23 rescues proteinuria in lipopolysaccharide (LPS) treated mice. LPS is a model for proteinuric kidney disease. Albumin levels were determined in 6 mice prior to (Con), 24 hours after LPS injection (2×LPS), and 2, 4, 6 and 8 h after administration of Bis-T-23 (open bars) or DMSO (delivery solution, grey bars). A decrease in proteinuria was noted from 2-8 hours after administration of a single dose of this ring stabilizer.
A second model of acute proteinuria was then employed to test the ability of a dynamin ring stabilizer to ameliorate proteinuria in a reversible model of proteinuric kidney disease. LPS-induced proteinuria was utilized as previously described (Sever et al., 2007). Briefly, four week old female BALB/c mice were injected twice intraperitoneally (IP) with 200 μg of ultrapure LPS diluted in phosphate-buffered saline at a concentration of 1 mg/ml. Proteinuria developed within 48 h (FIG. 20, 2×LPS). Bis-T-23 was dissolved in DMSO to the appropriate concentrations and 300 μg per 100 g body weight was delivered by IP injection, and DMSO was used as a vehicle control. The level of protein in the urine was determined by using mouse Albumin-specific ELISA kit according to manufacturer's protocol (Bethyl Laboratories).

In experiment [2] the test system is mouse expressing ‘gain of function’ α-actinin 4 mutant protein. Description: Proteinuria in mouse expressing gain of function α-actinin 4 mutant. The format is in vivo. Conditions: IP, 166 μg/100 g body weight, up to 6 hours after administration, FIG. 20. As to the method: FIG. […] Proteinuria was measured using mouse Albumin-specific ELISA and Creatinine Companion assay kits (Exocell and Bethyl Laboratories) following manufacturer's protocols.
Mice expressing a ‘gain of function’ mutation in the ACTN4 gene encoding for α-actinin 4 has been fully characterized (Kaplan et al. 2000; Henderson et al. 2008; Yao et al. 2004). These animals develop FP effacement and proteinuria due to “hyper bundling” activity of α-actinin 4 mutant that induces aggregation of stress fibers. Proteinuria develops at 4-6 weeks of age. The animals used in the present study were obtained from Dr. Martin Pollak, Brigham and Women's Hospital, Boston, Mass., USA. Proteinuric phenotype was confirmed by determination of urinary albumin and creatinine using mouse Albumin-specific ELISA and Creatinine Companion assay kits (Exocell and Bethyl Laboratories) following the manufacturer's protocols. The control animal was a litermate. Bis-T-23 was dissolved in 100% DMSO to make a 10 μg/μl stock solution, of which 5 μl was diluted in 200 μl of 1×PBS, and this was injected intraperitoneally (IP) into the test animal (166 μg/100 g body weight) at time 0 hr. Protein levels in the urine were measured every 2 hours post injection.

In experiment [3] the test system is purified full length dynamin I. Description: Electron microscopy of dynamin ring formation in the absence of a template. In kind it is biochemical. Conditions: 5.4 μM, 200 nM dynamin, no template, FIG. 9C. As for the experimental part:
Dynamin was then examined by electron microscopy. […] The rings are bona fide dynamin rings (B).
Next, the effect of a ring stabilizer Bis-T-23 on the formation of dynamin rings in the absence of a template like PS liposomes was examined. At high concentrations in vitro, dynamin is well known to self-assemble into rings that are detectable by EM (Hinshaw and Schmid, 1995). Such self assembly requires high dynamin concentrations typically in the order of 500-1000 nM and is not observed at lower dynamin concentrations. Specifically, the effect of Bis-T-23 (5.4 μM) on 200 nM dynamin in the absence of template was tested, which is well below the concentration threshold for self-assembly. […] High power images confirmed that the electron dense structures are bona fide dynamin rings (FIG. 9B). […] The findings with basal dynamin are completely unexpected for a dynamin inhibitor and are indicative of the ring stabilizer activity.

Experiment [4] has as its system truncated dynamin I construct known as GG2. Briefly: Basal GTPase activity of assembly-incompetent dynamin construct GG2. The format is biochemical. The following applies: FIG. 5. From the text: FIG. 5 is a graph showing the basal GTPase activity of the truncated dynamin I construct known as GG2, containing only the GTPase domain linked to a small part of the GED domain (Chappie et al 2009). Unlike full length dynamin this construct is known to be unable to self-assemble or to form rings. Bis-T-22 and -23 and imminodyn-22 have no effect on the basal activity of this assembly-incompetent construct.
To verify that ring stabilizers require dynamin oligomerisation, a recombinant form of dynamin, called GG-2, which is dimeric yet is unable to self-associate into higher order oligomers (Chappie et al 2009) was tested. Ring stabilizers are unable to stimulate the basal activity of such constructs (FIG. 5).

Another experiment addresses T1, full length dynamin I (UniProt Q05193).
T1 construct: rows headed: basal rate of GTP hydrolysis of dynamin
T1 sequence (Q05193 1-864): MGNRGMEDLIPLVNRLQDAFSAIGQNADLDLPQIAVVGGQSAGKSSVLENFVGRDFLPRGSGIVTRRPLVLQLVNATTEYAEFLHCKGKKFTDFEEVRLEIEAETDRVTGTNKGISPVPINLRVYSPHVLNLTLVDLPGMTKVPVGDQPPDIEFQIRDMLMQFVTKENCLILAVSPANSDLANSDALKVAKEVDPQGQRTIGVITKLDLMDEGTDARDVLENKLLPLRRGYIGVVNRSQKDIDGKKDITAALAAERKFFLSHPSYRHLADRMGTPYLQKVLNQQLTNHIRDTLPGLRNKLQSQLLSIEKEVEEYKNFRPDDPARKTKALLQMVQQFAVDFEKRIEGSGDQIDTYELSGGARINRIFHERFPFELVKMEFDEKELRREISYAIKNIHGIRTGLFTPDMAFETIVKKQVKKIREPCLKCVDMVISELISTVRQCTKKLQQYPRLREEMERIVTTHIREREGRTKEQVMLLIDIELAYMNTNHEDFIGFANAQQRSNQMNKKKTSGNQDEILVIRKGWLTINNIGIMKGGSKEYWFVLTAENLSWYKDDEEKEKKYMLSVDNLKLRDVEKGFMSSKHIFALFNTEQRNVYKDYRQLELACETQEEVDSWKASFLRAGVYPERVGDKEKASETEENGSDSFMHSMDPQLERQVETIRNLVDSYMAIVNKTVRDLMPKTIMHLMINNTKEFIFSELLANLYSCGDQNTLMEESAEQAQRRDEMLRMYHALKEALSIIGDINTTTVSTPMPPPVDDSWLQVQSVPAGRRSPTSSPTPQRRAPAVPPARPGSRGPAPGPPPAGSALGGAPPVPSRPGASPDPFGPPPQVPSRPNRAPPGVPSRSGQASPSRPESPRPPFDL
Briefly: Basal dynamin GTPase activity in the absence of PS liposomes or other template (ring stabilizer activity). Conditions: 0.2 μM dyn1, 7 μM compound, 10 μM Gsn-F-actin complexes, FIG. 18. The format is biochemical, sheep.

Regarding `N#CC(=Cc1cc(O)c(O)c(O)c1)C(=O)NCCCNC(=O)C(C#N)=Cc1cc(O)c(O)c(O)c1` [Bis-T-23, 2-cyano-N-{3-[2-cyano-3-(3,4,5-trihydroxyphenyl)-acryloylamino]-propyl}-3-(3,4,5-trihydroxyphenyl)-acrylamide], the “proteinuria (urine albumin)” value in experiment [1] (2-6 h after injection, FIG. 21) is “partially rescued proteinuria”; in experiment [1] (8 h after injection), “ability to rescue proteinuria was reduced”. Further, in experiment [2], the “proteinuria (urinary albumin and creatinine)” value is recorded as “decrease in proteinuria to wild-type levels”. Also, the “increase in bona fide dynamin rings” value in experiment [3] came out at 6 fold. The “effect on basal GTPase activity of GG2” value in experiment [4] was “no effect”. Further, the “basal rate of GTP hydrolysis of dynamin” value at full length dynamin I was “increased the rate of basal dynamin GTP hydrolysis to a similar level to addition of Gsn-F-actin complexes”.
